Source: patent publication US20030157553A1, “Methods of assaying for G protein-coupled receptor ligands and modulators” (priority 2000, published 2003)

Experiments:
β2AR [1] = experiment: Direct binding assay of in vitro translated tritiated arrestins to purified β2AR reconstituted into phospholipid vesicles; details: activated by 0.1 mM agonist isoproterenol, FIG. 1A; for binding to activated unphosphorylated receptor: unphosphorylated β2AR
Description: Mutagenesis and Biochemical Characterization of β-Arrestins—Mutations Arg169→Glu (CGG→GAG), Gln394→Ter (CAA→TAA), and Asp383→Ter (GAT→TAG) were introduced by polymerase chain reaction in β-arrestin construct pBARR (Gurevich et al. (1995) J. Biol. Chem. 270:720-731), that was used for in vitro transcription and translation, as described (Gurevich et al. (1995), supra). NcoI/HindIII 1404-base pair open reading frame was then subdloned into appropriately digested Escherichia coliexpression vector pTrcHisB (Invitrogen). All β-arrestin species were expressed in the in vitro translation system and tested in the direct binding assay (Gurevich et al. (1995), supra), overexpressed in E. coli, purified to apparent homogeneity (Gray-Keller et al. (1997) Biochemistry 36:7058-7063), and characterized in the agonist affinity shift assay (Gurevich et al. (1997) J. Biol Chem. 272:28849-28852), essentially as described.
Direct Binding Assay—In vitro translated tritiated arrestins (50 fmol) were incubated in 50 mM Tris-HCl, pH 7.5, 0.5 mM MgCl2, 1.5 mM dithiothreitol, 50 mM potassium acetate with 7.5 pmol of the various functional forms of rhodopsin or with P-β2AR or β2AR (100 fmol/assay) in a final volume of 50 μl for 5 min at 37° C. in room light (rhodopsin) or for 60 min at 30° C. in the presence of 0.1 mM -agonist isoproterenol. The samples were immediately cooled on ice and loaded onto 2 ml Sepharose 2B columns equilibrated with 20 mM Tris-HCl, pH 7.5, 2 mM EDTA. Bound arrestin eluted with receptor-containing membranes in the void volume (between 0.5 and 1.1 ml). Nonspecific binding determined in the presence of 0.3 μg of liposomes was subtracted.

β2AR [2] = experiment: Agonist affinity shift assay ([125I] iodopindolol), formation of high agonist affinity complex (HAC); format: binding; details: 1 μM arrestin, FIG. 2A
Description: Mutagenesis and Biochemical Characterization of β-Arrestins—Mutations Arg169→Glu (CGG→GAG), Gln394→Ter (CAA→TAA), and Asp383→Ter (GAT→TAG) were introduced by polymerase chain reaction in β-arrestin construct pBARR (Gurevich et al. (1995) J. Biol. Chem. 270:720-731), that was used for in vitro transcription and translation, as described (Gurevich et al. (1995), supra). NcoI/HindIII 1404-base pair open reading frame was then subdloned into appropriately digested Escherichia coliexpression vector pTrcHisB (Invitrogen). […]
Agonist Affinity ShiftAssay—P-β2AR or β2AR (10-15 fmol/assay) was incubated in 0.25 ml of 10 mM Tris-HCl, pH 7.4, 100 mM NaCl (buffer A) containing 0.1 mg/ml bovine serum albumin in the presence of 65-75 fmol of [^125I] iodopindolol (NEN Life Science Products) and the indicated concentrations of arrestins and agonists for 60 min at 22° C. […] Receptor-containing liposomes with bound radioligand were eluted with buffer A (between 0.6 and 1.5 ml), and radioactivity was quantitated in a liquid scintillation counter. Nonspecific binding was determined in the presence of 10 μM alprenolol. […]

Row | Substance | binding to activated unphosphorylated receptor (β2AR [1]) | percentage of HAC formed by unphosphorylated β2AR (β2AR [2]) | binding to activated and phosphorylated β2AR (β2AR [1]; phosphorylated β2AR (P-β2AR))
1 | β-arrestin-(1-393): bovine β-arrestin mutant Gln394→Ter, part of the regulatory COOH terminus deleted | bind poorly | – | –
2 | β-arrestin-(1-382): bovine β-arrestin mutant Asp383→Ter, truncated regulatory COOH terminus | significantly higher binding | 22±4% | –
3 | β-arrestin: wild type bovine β-arrestin, comparator for the mutants | bind poorly | – | readily bind
